What was measured:
[1] = tested on: KYSE520; test: CellTiter-Glo cell proliferation inhibition, KYSE520; assay type: cell-based, human; conditions: Homo sapiens, KYSE-520; KYSE520 cells, 120 hours, CellTiter-Glo
Text: In this study, the CellTiter-Glo® Luminescent Cell Viability Assay kit from Promega was used to evaluate the inhibitory effects of the disclosed compounds on the proliferation of cell lines KYSE520 (a human esophageal squamous cell carcinoma cell line dependent on SHP2 for growth), MeWo (a human malignant melanoma cell line), and MV4-11 (an RTK-mutant human acute monocytic leukemia cell line).
KYSE520 cells (Nanjing Kebaio Biotechnology Co., Ltd., Catalog #CBP60658) were thawed by rapidly shaking the cryovial in a 37 °C water bath to thaw within 1 minute. The thawed cell suspension was mixed homogeneously with RPMI 1640 medium (HyClone, Catalog #SH30027.01) containing 10% FBS (ExCell, Catalog #FND500), centrifuged at 1000 rpm for 5 minutes, and the supernatant was discarded. The cell pellet was resuspended in 5 mL of complete culture medium (RPMI 1640 medium containing 10% FBS) and placed in a cell culture flask with 25 cm^2 of bottom area, then cultured in a cell culture incubator at 37 °C, 95% humidity, and 5% CO2. Cell passaging was performed when the cell confluence reached approximately 80%. During cell passaging, the old culture medium was discarded, the cells were washed once with DPBS (Thermo Fisher, Catalog #14190-144), and 1 mL of trypsin (Thermo Fisher, Catalog #25200072) was added to digest the cells. When the cells dispersed into single cells and detached from the bottom of the culture flask, 3 mL of fresh complete culture medium was added to stop the digestion. After gently pipetting the cell suspension, 1/5 of the cell suspension was retained, 5 mL of fresh complete culture medium was added, and after mixing, the cells were placed in a cell culture flask for further culture. Cell plating was performed when the cell confluence again reached approximately 80%. During cell plating, following the cell passaging method, 1/5 of the cell suspension was retained for continued culture, and the remaining 4/5 of the cell suspension was placed in a 15 mL centrifuge tube. Cell viability was determined using the trypan blue exclusion method to ensure that cell viability was above 90%. A cell suspension with a density of 2.22 × 10^4 cells/mL was prepared using complete culture medium, and 135 µL of the cell suspension was added to a 96-well transparent flat-bottom black-walled cell culture plate (Greiner, Catalog #655090), resulting in a cell density of 3000 viable cells per well. A control group containing only complete culture medium without cells and compounds (i.e., culture medium control) and a control group containing cells but no compound (i.e., cell control) were set up. The cell plates were incubated overnight in a cell culture incubator. First, a 10 mM stock solution of the compound (Example compound and positive control compound 11a-1) in DMSO (Damas-beta, catalog #75927R) was serially diluted 3-fold to the 9th concentration, and a 10th concentration containing only DMSO (without compound) was also prepared as a control. Then, the DMSO solutions containing different concentrations of the compound were diluted 100-fold with complete culture medium, resulting in a 1% DMSO concentration in each solution. Finally, 15 µL of each solution was added to the corresponding wells of the cell culture plate, resulting in a starting compound concentration of 10 µM, with a 3-fold dilution between adjacent concentrations, and a final DMSO concentration of 0.1% in the cell culture plate. The cell plates were then incubated in the cell culture incubator for another 120 hours.
For endpoint detection, CellTiter-Glo reagent (Promega, catalog number #G7573, CellTiter-Glo® Luminescent Cell Viability Assay Kit) was melt and each cell plate was moved to room temperature for equilibration for 30 minutes. 75 µL (KYSE520 cells) or 50 µL (MeWo cells and MV 4-11 cells) of CellTiter-Glo was added to each well of the corresponding cell plate. The plates were shaken on a track-mounted shaker for 2 minutes to fully lyse the cells. […]

[2] = target: T1, SHP2 enzyme (catalytic domain, amino acid sequence 224-528) (Homo sapiens, UniProt Q06124); test: SHP2 enzyme inhibition assay (DiFMUP substrate, fluorescence); assay type: biochemical; conditions: for IC50: SHP2 catalytic domain, DiFMUP substrate, 30 min pre-incubation, read-out: S HP2 I C50; for SHP2 IC50 times lower than control compound 11a-1: relative to 11a-1, IC50 = 0.108 µM
T1 construct: purchased GenScript
T1 sequence (Q06124 224-528): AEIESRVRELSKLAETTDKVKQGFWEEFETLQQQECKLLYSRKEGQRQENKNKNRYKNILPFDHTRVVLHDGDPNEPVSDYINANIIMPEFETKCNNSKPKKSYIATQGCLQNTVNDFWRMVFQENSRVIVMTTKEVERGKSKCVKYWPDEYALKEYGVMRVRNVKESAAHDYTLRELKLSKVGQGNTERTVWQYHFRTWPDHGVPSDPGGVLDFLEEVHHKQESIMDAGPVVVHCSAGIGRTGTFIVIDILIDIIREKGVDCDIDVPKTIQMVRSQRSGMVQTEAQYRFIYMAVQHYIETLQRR
Experimental: This experiment evaluates the inhibitory effect of the test compounds on SHP2 enzyme activity by detecting the reaction between the human recombinant protein SHP2 enzyme and the substrate.
The stock solutions of the reaction buffer components were thawed and mixed homogeneously at room temperature, to prepare the reaction buffer (55 mM HEPES pH = 7.2 (Sigma, Cat. No. #PHR1428), 100 mM NaCl (Beyotime, Cat. No. #ST374, 5 M solution), 0.5 mM EDTA (Beyotime, Cat. No. #ST066), 1 mM DL-Dithiothreitol (DTT) (Sigma, Cat. No. #D9779), 0.002% BSA (Solarbio, Cat. No. #A8010), 0.001% Brij35 (Brij® L23 solution (Brij35) (Sigma, Cat. No. #B4184)). The SHP2 enzyme (catalytic domain, amino acid sequence 224-528, expressed and purified by GenScript) was thawed slowly on ice. 1 µL of this solution (1.37 mg/mL) was added to 386 µL of the reaction buffer to dilute it to 100 nM. Then, 120 µL of the 100 nM SHP2 enzyme solution was added to 2880 µL of reaction buffer to prepare a 4 nM SHP2 enzyme working solution. The test compounds and the specific inhibitor of SHP2 (11a-1, used as a positive control, Zeng, L. et al., J. Med. Chem. 2014, 57, 6594-6609) were prepared as 10 mM DMSO solutions. 10 µL of the 10 mM compound solution was mixed with 20 µL of DMSO solution, and then serially diluted 3-fold, resulting in 10 concentrations. 1 µL of the serially diluted solution was mixed with 99 µL of reaction buffer to obtain a 10-fold diluted compound working solution.
A 96-well black half-area microplate (Greiner, catalog #675076) was used. 25 µL of 4 nM SHP2 enzyme working solution and 5 µL of 10x compound working solution were added to each well and incubated at room temperature for 30 minutes. 15 µL of DiFMUP substrate (Thermo Fisher Scientific, catalog #D6567) was added to 2985 µL of reaction buffer to prepare a 50 µM substrate working solution. After incubation of the compounds and SHP2 enzyme, 20 µL of the 50 µM substrate working solution was added to each well and incubated at room temperature for 5 minutes. The plate was then read on a multi-mode microplate reader (BioTek, Synergy H1) at 340 nm/450 nm fluorescence.
Data were analyzed using GraphPad Prism 9.0 software. A non-linear S-curve regression dose-response-inhibition equation was used to fit the data and generate the dose-response curve, from which the IC50 value was calculated. [formula]

Structure (SMILES) | IC50 [1] [µM] | IC50 [2] [nM] | SHP2 IC50 times lower than control compound 11a-1 [2]
CC1(n2c(-c3ccc(NC(=O)C(=O)Nc4ccc(N5CCC6(CCC(O)C6)CC5)cc4)cc3)cc3cc(F)c(-c4nnn[nH]4)cc32)CC1 (centres unmarked) [Example 102] | 0.116 | 49 | 
O=C(Nc1ccc(-c2cc3cc(F)c(-c4nnn[nH]4)cc3n2C2CCC2)cc1)C(=O)Nc1ccc(N2CCC(F)(CO)C2)cc1 (centres unmarked) [Example 17] | 0.185 | 120 | 
CC(C)(O)C1CC2(CCN(c3ccc(NC(=O)C(=O)Nc4ccc(-c5cc6cc(F)c(-c7nnn[nH]7)cc6n5C5CCC5)cc4)cc3)CC2)C1 [Example 98] | 0.195 | 83 | 
CCC(O)C1CCN(c2ccc(NC(=O)C(=O)Nc3ccc(-c4cc5cc(F)c(-c6nnn[nH]6)cc5n4C4CCC4)cc3)cc2)CC1 (centres unmarked) [Example 31] | 0.116 | 88 | 
CC1(n2c(-c3ccc(NC(=O)C(=O)Nc4ccc(N5CC6COCC6C5)cc4)cc3)cc3cc(F)c(-c4nnn[nH]4)cc32)CCC1 (centres unmarked) [Example 115] | 0.11 | 36 | 3-4 times
CC1(n2c(-c3ccc(NC(=O)C(=O)Nc4ccc(N5CC6(CCC(CO)CC6)C5)cc4)cc3)cc3cc(F)c(-c4nnn[nH]4)cc32)CCC1 [Example 86] | 0.158 | 64 | 
CC(C)(O)CC1CCN(c2ccc(NC(=O)C(=O)Nc3ccc(-c4cc5cc(F)c(-c6nnn[nH]6)cc5n4C4CCC4)cc3)cc2)CC1 [Example 27] | 0.17 | 111 | 
CC1(n2c(-c3ccc(NC(=O)C(=O)Nc4ccc(N5CCC6(CCC(CO)CC6)CC5)cc4)cc3)cc3cc(F)c(-c4nnn[nH]4)cc32)CCC1 [Example 113] | 0.116 | 114 | 
CC1(n2c(-c3ccc(NC(=O)C(=O)Nc4ccc(N5CC6(CCOCC6)C5)cc4)cc3)cc3cc(F)c(-c4nnn[nH]4)cc32)CCC1 [Example 58] | 0.125 | 31 | 3-4 times
O=C(Nc1ccc(-c2cc3cc(F)c(-c4nnn[nH]4)cc3n2C2CCC2)cc1)C(=O)Nc1ccc(N2CCC3(CCC(CO)C3)CC2)cc1 (centres unmarked) [Example 106] | 0.11 | 103 | 
C[C@@H](O)C1CCN(c2ccc(NC(=O)C(=O)Nc3ccc(-c4cc5cc(F)c(-c6nnn[nH]6)cc5n4C4(C)CCC4)cc3)cc2)CC1 [Example 30] | 0.192 | 86 | 
CC1(n2c(-c3ccc(NC(=O)C(=O)Nc4ccc(N5CC[C@H](CO)C5)cc4)cc3)cc3cc(F)c(-c4nnn[nH]4)cc32)CCC1 [Example 13] | 0.182 | 66 | 
CC1(n2c(-c3ccc(NC(=O)C(=O)Nc4ccc(N5CC6(CCC(O)CC6)C5)cc4)cc3)cc3cc(F)c(-c4nnn[nH]4)cc32)CCC1 [Example 82] | 0.097 | 30 | 3-4 times
O=C(Nc1ccc(-c2cc3cc(F)c(-c4nnn[nH]4)cc3n2C2CCC2)cc1)C(=O)Nc1ccc(N2CCC(C(O)C(F)(F)F)CC2)cc1 (centres unmarked) [Example 32] | 0.182 | 61 | 
CC1(n2c(-c3ccc(NC(=O)C(=O)Nc4ccc(N5CC6CC(CO)CC6C5)cc4)cc3)cc3cc(F)c(-c4nnn[nH]4)cc32)CCC1 (centres unmarked) [Example 120] | 0.115 | 55 | 
CC(C)(O)C1CCN(c2ccc(NC(=O)C(=O)Nc3ccc(-c4cc5cc(F)c(-c6nnn[nH]6)cc5n4Cc4ccccc4)cc3)cc2)CC1 [Example 36] | 0.12 | 52 | 
O=C(Nc1ccc(-c2cc3cc(F)c(-c4nnn[nH]4)cc3n2C2CCC2)cc1)C(=O)Nc1ccc(N2CC3(CCC(CO)CC3)C2)cc1 [Example 85] |  | 47 | 
CC1(O)CCC2(CCN(c3ccc(NC(=O)C(=O)Nc4ccc(-c5cc6cc(F)c(-c7nnn[nH]7)cc6n5C5CCC5)cc4)cc3)C2)C1 (centres unmarked) [Example 93] |  | 56 | 
COCC1(CO)CCN(c2ccc(NC(=O)C(=O)Nc3ccc(-c4cc5cc(F)c(-c6nnn[nH]6)cc5n4C4CCC4)cc3)cc2)CC1 [Example 44] |  | 57 | 
CC1CN(c2ccc(NC(=O)C(=O)Nc3ccc(-c4cc5cc(F)c(-c6nnn[nH]6)cc5n4C4CCC4)cc3)cc2)CCC1CO (centres unmarked) [Example 46] |  | 45 | 
CC(C)(O)C1CCN(c2ccc(NC(=O)C(=O)Nc3ccc(-c4cc5cc(F)c(-c6nnn[nH]6)cc5n4C4(C)CCC4)cc3)cc2)CC1 [Example 34] |  | 72 | 
O=C(Nc1ccc(-c2cc3cc(F)c(-c4nnn[nH]4)cc3n2C2CCC2)cc1)C(=O)Nc1ccc(N2CCC3(CC2)COC3)cc1 [Example 63] |  | 38 | 3-4 times
N#Cc1nnc(-c2cc3c(cc2F)cc(-c2ccc(NC(=O)C(=O)Nc4ccc(N5CCC6(CCOC6)CC5)cc4)cc2)n3C2CCC2)[nH]1 [Example 127] |  | 144 | 
CC1(O)CCC2(CN(c3ccc(NC(=O)C(=O)Nc4ccc(-c5cc6cc(F)c(-c7nnn[nH]7)cc6n5C5(C)CCC5)cc4)cc3)C2)C1 (centres unmarked) [Example 80] |  | 36 | 3-4 times
CC(C)(O)C1CCN(c2ccc(NC(=O)C(=O)Nc3ccc(-c4cc5cc(F)c(-c6nnn[nH]6)cc5n4CC4CCC4)cc3)cc2)CC1 [Example 38] |  | 112 | 
Cc1nnc(-c2cc3c(cc2F)cc(-c2ccc(NC(=O)C(=O)Nc4ccc(N5CCC6(CCOC6)CC5)cc4)cc2)n3C2CCC2)[nH]1 [Example 128] |  | > 10000 | 
